Test results: patent EP1738803A1, “Inhibitors of staphylococcus hominis in deodorants and antiperspirants” (Henkel Kommanditgesellschaft auf Aktien, priority 2005, dated 2007)
Read-outs that look alike come from different tables or passages of the source.

Tested on: Staphylococcus hominis
Assay: Inhibition test: growth of Staphylococcus hominis in Luria broth liquid culture, plate count versus control
Type: cell-based
Settings: for log reduction at 0.1 % / log reduction at 0.05 % / log reduction at 0.2 % / log reduction at 0.5 %: Staphylococcus hominis, read-out: Hemmleistung als Differenz zur Kontrolle in log-Stufen (RF-Wert); for log reduction at 0.1 %: 0,1 Gew.-% Aktivsubstanz; for log reduction at 0.1 % / log reduction at 0.05 % / Hemmleistung als Differenz zur Kontrolle in log-Stufen (RF-Wert): 37°C; for log reduction at 0.05 %: 0,05 Gew.-% Aktivsubstanz; for Hemmleistung als Differenz zur Kontrolle in log-Stufen (RF-Wert): 0,5 Gew.-% Aktivsubstanz
Method: Eine Luria-broth-Vorkultur (1 Gew.-% Trypton, 0,5 Gew.-% Hefeextrakt, 0,5 Gew.-% NaCl) von Staphylococcus hominis wurde mit Medium auf eine OD600 von 0,1 (entspricht 10^5-10^7 cfu/ml) eingestellt und in 50 ml-Aliquots auf Erlenmeyer-Kolben verteilt. Dazu wurden die zu testenden Wirkstoffe gegeben, so dass sie in den in Tabelle 1 angegebenen Konzentrationen vorlagen, und die Kultur mit 100 Upm bei 37°C inkubiert. Öllösliche Stoffe wie Bisabolol wurden mit 0,1% Tween emulgiert und gegen eine entsprechende Kontrolle getestet. Nach 4, 8 und 24 h erfolgte eine Keimzahlbestimmung über Ausplattieren, wobei die Hemmleistung der einzelnen Wirkstoffe als RF-Wert (Differenz zur Kontrolle in log-Stufen) angegeben ist. Tabelle 1

In the case of CC(C)=CCC[C@](C)(O)C1CC=C(C)CC1 (stereo partly drawn) [(-)-α-Bisabolol], the log reduction at 0.1 % (Zeit 0 h) is reported as 0, the log reduction at 0.1 % (Zeit 4 h) is reported as 1.98 and the log reduction at 0.1 % (Zeit 8 h) is reported as 2.6. It also gave a log reduction at 0.05 % (Zeit 0 h) of 0, a log reduction at 0.05 % (Zeit 4 h) of 1.3 and a log reduction at 0.05 % (Zeit 8 h) of 1.75.
With CCCCC(CC)COCC(O)CO (stereo not drawn) [Sensiva SC 50, α-Mono-(2-ethylhexyl)glycerinether] the log reduction at 0.2 % (0 h) was 0, the log reduction at 0.5 % (0 h) was 0 and the log reduction at 0.2 % (4 h) was 5.77. The log reduction at 0.5 % (4 h) was 6.14, the log reduction at 0.2 % (8 h) was 6.19 and the log reduction at 0.5 % (8 h) was 6.63.
Aluminiumchlorhydrat was tested, and the “Hemmleistung als Differenz zur Kontrolle in log-Stufen (RF-Wert)” value (Zeit 0 h) was 0 log-Stufen, the “Hemmleistung als Differenz zur Kontrolle in log-Stufen (RF-Wert)” value (Zeit 4 h) was 6,07 log-Stufen and the “Hemmleistung als Differenz zur Kontrolle in log-Stufen (RF-Wert)” value (Zeit 8 h) was 6,34 log-Stufen.
